Source: patent US20170307631A1, “METHODS, SYSTEMS AND PRODUCTS FOR PREDICTING RESPONSE OF TUMOR CELLS TO A THERAPEUTIC AGENT AND TREATING A PATIENT ACCORDING TO THE PREDICTED RESPONSE” (Merrimack Pharmaceuticals, Inc., priority 2008, published 2017)

Assays:
pErbB3 in NCI-ADRr cells = experiment: ErbB3 phosphorylation dose response curves for ErbB ligands (ELISA); type: cell-based, human
Protocol: (§1) For stimulation of the cells, the cells are seeded in […] at 35,000 cells per well in 96 well tissue culture plates and incubated overnight in a humidified atmosphere of 5% CO2, 95% air and 37 degrees Celsius. Cells are then switched to serum free media: RPMI-1640 media (Gibco) supplemented with, 2 mM L-glutamine (Gibco) and units/mL Pen-Strep (Gibco). Starved cells are incubated in a humidified atmosphere of 5% CO2, 95% air and 37 degrees Celsius for 20-24 hours prior to stimulation.
(§2) Levels of protein phosphorylation in the stimulated cells are measured by ELISA. Capture antibodies against ErbB1 (R&D Systems, AF231), ErbB2 (R&D Systems, MAB1129), ErbB3 (R&D Systems, MAB3481) and AKT (Upstate, 05-591MG) are incubated in 384 well black flat-bottom polystyrene high-binding plates (Corning, Catalog #3708) overnight at room temperature. The ELISA plates are blocked with 2% bovine serum albumin (BSA) and phosphate buffered saline (PBS) for one hour then incubated with lysates diluted in 2% BSA, 0.1% Tween-20 and PBS for two hours at room temp. In between each incubation, the plates are washed three times with 0.05% Tween-20 in PBS. ELISAs for measuring phospho-ErbB1, -ErbB2 and -ErbB3 are incubated with phospho-tyrosine horseradish peroxidase (HRP) linked monoclonal antibody (R&D Systems, HAM1676) for two hours. ELISAs measuring phospho-AKT are incubated with primary serine 473 specific anti-phospho AKT mouse monoclonal antibody (Cell Signaling Technologies, Catalog #5102) for 2 hours, then incubated with Streptavidin-HRP (R&D Systems, Catalog # DY998,) for 30 minutes. All ELISAs are visualized with SuperSignal ELISA Pico Chemiluminescent Substrate (Pierce, Catalog #37069) and luminescent signal is measured using a luminometer.

pErbB1 in NCI-ADRr cells = experiment: ErbB1 phosphorylation dose response curves for ErbB ligands (ELISA); type: cell-based, human
Protocol: as §1, §2

pAKT in NCI-ADRr cells = experiment: AKT phosphorylation dose response curves for ErbB ligands (ELISA); type: cell-based, human; conditions: 5 min
Protocol: as §1, §2

pErbB2 in NCI-ADRr cells = experiment: ErbB2 phosphorylation dose response curves for ErbB ligands (ELISA); type: cell-based, human
Protocol: as §1, §2

ErbB1 (E1) = ErbB1 (E1) (Homo sapiens, UniProt P00533); experiment: ErbB computational model: BTC ligand binding rate parameters
Text: The ErbB receptor signaling network model consists of three receptors (ErbB1, ErbB2, ErbB3), a receptor phosphatase, phosphatidylinositol 3-kinase (PI3K, which binds the receptors) and components of the PI3K-AKT cascade (phosphatidylinositol bisphosphate, PIP2, phosphoinositide-dependent protein kinase, PDK1, PTEN deleted from chromosome 10, PTEN, serine, threonine protein kinase also known as protein kinase B, AKT, Protein phosphatase 2A, PP2A) (see Table 8 below).
Many of the reaction rate parameters are unknown in the cell system we studied and therefore had to be estimated (see Table 10 below). To avoid biasing the starting point, all parameters were set to default values (Aldridge, B. B. et al. (2006) Nat. Cell. Biol. 8:1195-1203). The number of parameters estimated was limited by performing the estimation in two stages: first the model was calibrated against the experimentally observed ErbB receptor phosphorylation data; second, the parameters sensitive to AKT phosphorylation were optimized against the experimental data. Estimated values were only accepted if the parameters were constrained under multiple parameter runs using a genetic algorithm with a population size of 50 and 25 generations (Mathworks, Mass.). […] The normalized sensitivities of each species were integrated over the two hour stimulation, and parameters with normalized, integrated sensitivities greater than an arbitrary threshold of 1000 are listed in Table 11 below. As mentioned above, ErbB4 phosphorylation was not included into the parameter estimation because the cell line studied had barely detectable ErbB4 (see Table 3 below). ErbB4 reactions are parameterized according to ErbB3 reactions.

| EC50 (pErbB3 in NCI-ADRr cells) | EC50 (pErbB1 in NCI-ADRr cells) | forward binding rate (ErbB1 (E1); estimated using known Kds and initial dose response curves) | kf3: BTC binding to E1 (ErbB1 (E1); model parameter) | kf4: BTC binding to E1 homodimers (ErbB1 (E1); model parameter) | kf5: BTC binding to E1 heterodimers (ErbB1 (E1); model parameter) | kr3: BTC dissociation from E1 (ErbB1 (E1); model parameter) | kf129: BTC binding in the endosome (ErbB1 (E1); model parameter, endosome) | EC50 (pErbB2 in NCI-ADRr cells) | Substance | pErbB3 % stimulation at 5 min relative to maximum (pErbB3 in NCI-ADRr cells) | pErbB1 % stimulation at 5 min relative to maximum (pErbB1 in NCI-ADRr cells) | pAKT % stimulation at 5 min relative to maximum (pAKT in NCI-ADRr cells) | pErbB2 % stimulation at 5 min relative to maximum (pErbB2 in NCI-ADRr cells) |
| --- | --- | --- | --- | --- | --- | --- | --- | --- | --- | --- | --- | --- | --- |
| 0.38 µM | 0.037 µM | – | – | – | – | – | – | – | AR: ErbB ligand amphiregulin | 17.0% | 95.0% | 28.0% | 54.0% |
| 0.1 µM | 0.0057 µM | ~100000 M⁻¹ s⁻¹ | 5.00 × 10^−11 molecules−1 sec−1 | 5.00 × 10^−11 molecules−1 sec−1 | 5.00 × 10^−11 molecules−1 sec−1 | 0.001 s⁻¹ | 3.8 molecules−1 sec−1 | – | BTC: ErbB ligand betacellulin, binds primarily to ErbB1 | – | – | – | – |
| – | – | – | – | – | – | – | – | – | Epiregulin: ErbB ligand epiregulin | – | 9.0% | 11.0% | 18.0% |
| – | 0.021 µM | – | – | – | – | – | – | 0.23 µM | HB-EGF: ErbB ligand, heparin-binding epidermal growth factor | 32.0% | 87.0% | 20.0% | 94.0% |
